Data as given in patent publication US20240398738A1, “MANIPULATION OF THE RETINOIC ACID SIGNALING PATHWAY” (THE REGENTS OF THE UNIVERSITY OF CALIFORNIA, priority 2017, published 2024).
“Also recorded” adds a separate entry of the source.

How the values were obtained:
Assay type in all cases: in vivo, mouse
[1] = tested on: retinal neurons (photoreceptors); experiment: TUNEL assay after intravitreal injection; conditions: WT, 5-6 days after intravitreal injection, ATRA 100 nM
Excerpt: Immunolabeling and TUNEL assay. S334ter rat retinas infected with the RARE double reporter were dissected, fixed and frozen, as previously described (54). The tissue was cut in 14 μm thick cross-sections using a Leica cryostat. Immunocytochemical solution (ICC) was composed of standard 1×PBS (Gibco), 2.5% BSA (Sigma) and 0.1% Triton (Sigma). The tissue was blocked using ICC solution supplemented with unconjugated rabbit anti-mouse secondary antibody (Life Technologies) at RT for 1 hr. Slides were incubated with primary mouse anti-GFP antibody (#JL8, Clontech), with no RFP cross-reactivity, at 4° C. ON. An Alexa Fluor-488 conjugated goat anti-mouse secondary antibody (Life Technologies) was used at RT for 1 hr in the dark. The same procedure was carried out for detection of RARβ in mouse retinas following injection of vehicle or ATRA. Slides were incubated with a primary rabbit anti-RARβ antibody (ab53161, Abcam) and detected using an Alexa Fluor-488 conjugated goat anti-rabbit secondary antibody (Life Technologies). TUNEL assay (In Situ Cell Death Detection Kit, Roche) was carried out per manufacturer's instructions. Retinas were collected 5-6 days following injection with vehicle, ATRA, or ATRA and Liarozole.
TUNEL assay. TUNEL assay (In Situ Cell Death Detection Kit, Roche) was carried out per manufacturer's instructions. […]

RGCs in rd1 retina [2] = experiment: MEA recording of photoswitch (QAQ, BENAQ) photosensitization in rd1 retina
Procedure: (§1) Intravitreal Injections. Before injection, mice were anesthetized with isoflurane (2%) and their pupils were dilated with tropicamide (1%) and phenylephrine (2.5%). Proparacaine (0.5%) was used as a topical analgesic. Genteal was applied under a glass coverslip to keep the cornea lubricated. An incision was made through the sclera below the ora serrata with a 30G needle and ˜1 μl of solution was injected into the vitreous with a blunt-ended 33G Hamilton syringe. After injection, the antibiotic tobramycin (0.3%) was applied to the eye. Final drug concentrations after intravitreal injection were: all-trans retinoic acid (ATRA, 100 nM), liarozole (100 μM), diethylaminobenzaldehyde (DEAB, 20 μM), citral (50 μM), BMS-493 (500 nM), and retinaldehyde (1 μM). The above values correspond to the final concentration in the eye after injecting 1 μl of drug accounting for a 5-fold dilution. An injection of PBS including 1% DMSO was used as vehicle control.
Multi Electrode Array Recordings. For extracellular recordings, a flat-mounted retina was placed ganglion cell layer down onto a 60-electrode Multi-Electrode Array (MEA 1060-2-BC, Multi-Channel Systems). After mounting the retina, photoswitches were applied for 30 min, followed by a 15 min wash. BENAQ was applied at a concentration of 100 μM and QAQ at 300 μM. A solution containing a mixture of neurotransmitter receptor blockers isolated RGCs from synaptic inputs: (in μM) 10 AP4, 40 DNQX, 30 AP5, 10 SR-95531, 50 TPMPA, 10 strychnine, and 50 tubocurarine. Extracellular spikes were high-pass filtered at 200 Hz and digitized at 20 kHz and were counted when exceeding 4 SD from the mean background voltage signal. Typically, each electrode recorded spikes from one to three individual RGCs. Principal component analysis of the spike waveforms was used for sorting spikes generated by individual cells (Offline Sorter, Plexon). Stimulation light was generated from a mercury arc lamp. Unfiltered broad spectrum light was used for BENAQ-treated retinas. Narrow band optical filters (Chroma) were used to deliver alternating intervals of 380 nm and 500 nm for stimulation of QAQ-treated as described previously (5,12). The Photoswitch Index (5) (PI) was established for individual retinas in light/darkness for treatment with BENAQ or in 380 nm/500 nm light for treatment with QAQ (11,12).
Injections. Intravitreal injections: Adult mice and rats were intravitreally injected with drugs or viruses. Before injection, animals were anesthetized with isoflurane (2%) and their pupils were dilated with tropicamide (1%) and phenylephrine (2.5%). Proparacaine (0.5%) was used as a topical analgesic. Genteal was applied under a glass coverslip to keep the cornea lubricated. An incision was made through the sclera below the ora serrata with a 30G needle. Solutions were injected into the vitreous with a blunt-ended 33G Hamilton syringe. After injection, the antibiotic tobramycin (0.3%) was applied to the eye. Final drug concentrations (after 5-fold dilution in the vitreous) were: 100 nM all-trans retinoic acid (ATRA), 100 μM liarozole (24), 20 μM diethylaminobenzaldehyde (DEAB) (28,93), 50 μM citral, 500 nM BMS 493 (85), 1 μM retinaldehyde, and vehicle comprising of 1× phosphate buffered saline (PBS) containing 1% dimethyl sulfoxide (DMSO). Intravitreal injections were performed using AAV2 serotype only. WT and rd1 mice were injected with the RAR-reporter virus or the RARDN virus, at age 1-1.5 month-old. […]

RGCs in rd1 retina [3] = experiment: MEA recording of RGC spontaneous activity in darkness, rd1 retina
Procedure: as §1
Multi Electrode Array Recordings. For extracellular recordings, a flat-mounted retina was placed ganglion cell layer down onto a 60-electrode Multi-Electrode Array (MEA 1060-2-BC, Multi-Channel Systems). […] Extracellular spikes were high-pass filtered at 200 Hz and digitized at 20 kHz and were counted when exceeding 4 SD from the mean background voltage signal. Typically, each electrode recorded spikes from one to three individual RGCs. […]

SMILES | cell death / toxicity (TUNEL) [1] | QAQ photosensitization of rd1 retina, in words (RGCs in rd1 retina [2]; rd1 mice injected intravitreally with BMS-493) | Photoswitch Index (PI) with BENAQ (RGCs in rd1 retina [2]; rd1 retina treated with BMS-493 (intravitreal, 3-7 days), BENAQ, white light/darkness, mean±SEM) | Photoswitch Index (PI) with QAQ (RGCs in rd1 retina [2]; rd1 retina treated with BMS-493 (intravitreal, 3-7 days), QAQ 300 μM, 380/500 nm, mean±SEM) | spontaneous firing of rd1 RGCs (mean Firing Rate) (RGCs in rd1 retina [3]; rd1, 3-7 days after a single intravitreal injection of BMS-493, control 5.13±0.74 Hz) [Hz] | spontaneous firing rates versus controls, in words (RGCs in rd1 retina [3]; rd1 retina, BMS-493 0.5 μM 3-7 days before, or AAV2-RARDN injected at P30, recorded at P90)
CC1=C(/C=C/C(C)=C/C=C/C(C)=C/C(=O)O)C(C)(C)CCC1 [ATRA, all-trans retinoic acid] | does not cause retinal neuron degeneration; also recorded: non-toxic; also recorded: no cell death | – | – | – | – | –
CC1(C)CC=C(C#Cc2ccccc2)c2cc(/C=C/c3ccc(C(=O)O)cc3)ccc21 [BMS-493] | – | prevented QAQ photosensitization | 0.35±0.05 | 0.15±0.06 | 2.67±0.33 | significantly lower
